According to ChEMBL document CHEMBL5046218, “Novel Dual-Target μ-Opioid Receptor and Dopamine D3 Receptor Ligands as Potential Nonaddictive Pharmacotherapeutics for Pain Management” (J Med Chem, 2021):
Activity calls are given as the source filed them. No cut-off for these calls is given here.

Legend:
D(4) dopamine receptor = target: T1, D(4) dopamine receptor (Homo sapiens, UniProt P21917); assay: Displacement of [3H]-N-methylspiperone from human dopamine D4 receptor expressed in HEK293 cell membranes incubated for 60 mins by microbeta scintillation counting analysis; parameters: species or system Membrane
T1 sequence (P21917 whole entry): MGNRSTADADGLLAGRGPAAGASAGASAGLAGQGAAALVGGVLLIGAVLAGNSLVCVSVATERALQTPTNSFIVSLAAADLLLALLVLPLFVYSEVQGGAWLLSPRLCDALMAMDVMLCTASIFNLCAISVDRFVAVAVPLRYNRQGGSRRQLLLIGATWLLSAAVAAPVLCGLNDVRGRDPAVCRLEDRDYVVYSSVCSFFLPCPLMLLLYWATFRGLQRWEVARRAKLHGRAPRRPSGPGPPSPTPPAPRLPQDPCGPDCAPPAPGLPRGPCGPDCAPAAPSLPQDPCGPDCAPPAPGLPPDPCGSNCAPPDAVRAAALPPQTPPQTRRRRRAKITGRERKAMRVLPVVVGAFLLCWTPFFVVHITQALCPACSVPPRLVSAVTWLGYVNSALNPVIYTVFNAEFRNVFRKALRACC

D(2) dopamine receptor [1] = target: T2, D(2) dopamine receptor (Homo sapiens, UniProt P14416); assay: Displacement of [3H]-N-methylspiperone from human dopamine D2 receptor expressed in HEK293 cell membranes incubated for 60 mins by microbeta scintillation counting analysis; parameters: species or system Membrane
T2 sequence (P14416 whole entry): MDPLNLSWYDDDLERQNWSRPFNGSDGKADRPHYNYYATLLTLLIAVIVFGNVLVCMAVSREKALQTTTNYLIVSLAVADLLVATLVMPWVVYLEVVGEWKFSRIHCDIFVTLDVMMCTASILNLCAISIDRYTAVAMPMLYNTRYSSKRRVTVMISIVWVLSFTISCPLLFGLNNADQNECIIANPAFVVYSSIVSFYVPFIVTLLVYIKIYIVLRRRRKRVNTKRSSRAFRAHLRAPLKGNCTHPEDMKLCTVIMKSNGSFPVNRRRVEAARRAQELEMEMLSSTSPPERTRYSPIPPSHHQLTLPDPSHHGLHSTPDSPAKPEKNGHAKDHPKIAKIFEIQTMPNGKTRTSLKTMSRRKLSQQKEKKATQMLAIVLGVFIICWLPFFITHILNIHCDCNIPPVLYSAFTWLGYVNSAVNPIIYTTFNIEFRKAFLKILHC

D(3) dopamine receptor [2] = target: T3, D(3) dopamine receptor (Homo sapiens, UniProt P35462); assay: Displacement of [3H]-N-methylspiperone from human dopamine D3 receptor expressed in HEK293 cell membranes incubated for 60 mins by microbeta scintillation counting analysis; parameters: species or system Membrane
T3 sequence (P35462 whole entry): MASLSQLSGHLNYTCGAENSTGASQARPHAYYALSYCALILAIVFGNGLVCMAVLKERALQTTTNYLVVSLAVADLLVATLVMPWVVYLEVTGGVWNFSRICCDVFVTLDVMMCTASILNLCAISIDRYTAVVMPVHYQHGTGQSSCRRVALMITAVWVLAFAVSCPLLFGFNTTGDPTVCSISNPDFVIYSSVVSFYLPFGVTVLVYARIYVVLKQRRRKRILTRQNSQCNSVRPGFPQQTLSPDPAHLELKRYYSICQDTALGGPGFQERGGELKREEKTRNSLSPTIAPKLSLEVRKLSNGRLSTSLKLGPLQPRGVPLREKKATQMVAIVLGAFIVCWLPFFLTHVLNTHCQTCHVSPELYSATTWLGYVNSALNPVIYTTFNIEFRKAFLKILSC

D(3) dopamine receptor [3] = target: T3, D(3) dopamine receptor; assay: Displacement of [3H]-(R)-(+)7-OH-DPAT from human dopamine D3 receptor expressed in HEK293 cell membranes incubated for 90 mins by microbeta scintillation counting analysis; parameters: species or system Membrane
D(2) dopamine receptor [4] = target: T2, D(2) dopamine receptor; assay: Displacement of [3H]-(R)-(+)7-OH-DPAT from human dopamine D2 receptor expressed in HEK293 cell membranes incubated for 90 mins by microbeta scintillation counting analysis; parameters: species or system Membrane
[5] = target: Mu-type opioid receptor (Homo sapiens) (UniProt P35372); conditions: HEK293T, time 10.0 min
Sequence of Mu-type opioid receptor (Homo sapiens) (P35372 whole entry): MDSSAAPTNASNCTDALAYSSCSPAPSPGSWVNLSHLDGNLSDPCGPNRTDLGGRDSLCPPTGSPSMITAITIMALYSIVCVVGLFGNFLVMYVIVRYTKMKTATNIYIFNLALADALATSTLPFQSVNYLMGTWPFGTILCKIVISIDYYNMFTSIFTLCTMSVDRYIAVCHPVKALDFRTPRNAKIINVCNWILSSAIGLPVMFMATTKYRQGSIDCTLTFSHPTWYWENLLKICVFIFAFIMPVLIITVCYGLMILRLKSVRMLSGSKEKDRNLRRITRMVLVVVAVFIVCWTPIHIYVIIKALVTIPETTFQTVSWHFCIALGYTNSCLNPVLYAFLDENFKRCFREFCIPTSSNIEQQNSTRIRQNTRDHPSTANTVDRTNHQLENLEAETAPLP

[6] = target: Mu-type opioid receptor (Homo sapiens) (UniProt P35372); conditions: HEK293T, time 10.0 min; remark: listed apart in the source
[7] = target: Mu-type opioid receptor (Homo sapiens) (UniProt P35372); conditions: HEK293T, time 10.0 min; remark: listed apart in the source
D(3) dopamine receptor [8] = target: T3, D(3) dopamine receptor; assay: Antagonist activity at human […] expressed in HEK293T cells assessed as GalphaoA activation preincubated with compound in D-PBS for 3 hrs followed by coelenterazine addition for 5 mins once again compound addition for 10 mins by BRET assay; type: functional, cell-based
D(3) dopamine receptor [9] = target: T3, D(3) dopamine receptor; conditions: HEK293T, time 10.0 min

| SMILES | Ki (D(4) dopamine receptor) [nM] | Ki (D(2) dopamine receptor [1]) [nM] | Ki (D(3) dopamine receptor [2]) [nM] | Ki (D(3) dopamine receptor [3]) [nM] | Ki (D(2) dopamine receptor [4]) [nM] | pEC50 [5] | pEC50 [6] | pEC50 [7] | pIC50 (D(3) dopamine receptor [8]) | pEC50 (D(3) dopamine receptor [9]) |
| --- | --- | --- | --- | --- | --- | --- | --- | --- | --- | --- |
| Oc1cccc(C(CCNCCCCN2CCN(c3ccccc3)CC2)c2cccc(O)c2)c1 | 422 | 987 | 249 | – | – | – | – | – | – | – |
| Oc1cccc([C@]23CCC[C@H](NCC2)[C@@H]3O)c1 | > 100000 | > 100000 | > 100000 | > 100000 | > 100000 | – | – | – | – | – |
| CCc1cccc(N2CCN(CCCCNCCC(C(=O)N(C)C)(c3ccccc3)c3ccccc3)CC2)c1Cl | 503 | 62.1 | 17.8 | 38.3 | 44.2 | – | – | – | – | – |
| CN(C)C(=O)C(CCNCCCCN1CCN(c2cccc(Cl)c2Cl)CC1)(c1ccccc1)c1ccccc1 | 378 | – | – | – | – | – | – | – | – | – |
| CCc1cccc(N2CCN(CCC(c3cccc(O)c3)c3cccc(OC)c3)CC2)c1Cl (stereo not given) | 38.5 | 190 | – | – | – | – | – | – | – | – |
| CN(C)C(=O)C(CCNCCC(O)CN1CCN(c2cccc(Cl)c2Cl)CC1)(c1ccccc1)c1ccccc1 (stereo not given) | 2780 | 700 | 572 | 209 | 167 | – | – | – | – | – |
| CCC(=O)C(CCN(C)C)(c1ccccc1)c1ccccc1 [NORMETHADONE] | > 100000 | 34900 | 4270 | – | – | – | – | – | – | – |
| CCOC(=O)/C=C1\[C@@H]2CCC[C@@]1(c1cccc(O)c1)CCN2C[C@@H]1C[C@H]1CCNC(=O)c1cc2ccccc2[nH]1 (relative stereo) | 17600 | 4860 | 2300 | – | – | inactive | inactive | inactive | – | – |
| CCc1cccc(N2CCN(CCC(C(=O)N(C)C)(c3ccccc3)c3ccccc3)CC2)c1Cl | 64.8 | 43 | 69 | 197 | 20.3 | – | – | – | – | – |
| CN(C)C(=O)C(CCN1CCc2ccc(C#N)cc2C1)(c1ccccc1)c1ccccc1 | 18000 | 2270 | 1630 | – | – | – | – | – | – | – |
| CCc1cccc(N2CCN(CCC(c3cccc(OC)c3)c3cccc(OC)c3)CC2)c1Cl | 63.4 | 170 | 93.8 | – | – | – | – | – | – | – |
| COc1cccc(C(=CCNCCCCN2CCN(c3cccc(Cl)c3Cl)CC2)c2cccc(OC)c2)c1 | 26100 | 5240 | 342 | – | – | – | – | – | – | – |
| CCOC(=O)/C=C1\[C@@H]2CCC[C@@]1(c1cccc(O)c1)CCN2CCCCNC(=O)c1cc2ccccc2[nH]1 | 13800 | 2950 | 13700 | – | – | inactive | inactive | inactive | > 5 | inactive |
| CCC(=O)N1CCC(c2ccccc2)(c2ccccc2)C1 | > 100000 | > 100000 | > 100000 | – | – | – | – | – | – | – |
| Oc1cccc([C@]23CCC[C@H](NCC2)[C@H]3O)c1 | > 100000 | > 100000 | > 100000 | > 100000 | > 100000 | – | – | – | – | – |
| Oc1cccc([C@@]23CCC[C@@H]([C@H]2O)N(C/C=C/c2ccccc2)CC3)c1 | 36900 | 7380 | 15700 | 20000 | 2790 | – | – | – | – | – |
| CN(C)C(=O)C(CCN1CCN(c2cccc(Cl)c2Cl)CC1)(c1ccccc1)c1ccccc1 | 102 | 74.7 | – | – | 31.3 | – | – | – | – | – |
| O=C(NCCCCN1CC[C@]2(c3cccc(O)c3)CCC[C@H]1[C@@H]2O)c1cc2ccccc2[nH]1 | 5630 | 4530 | 5630 | – | – | – | – | – | – | – |
| CN1CCC(c2ccccc2)(c2ccccc2)C1 | 35400 | > 100000 | > 100000 | – | – | – | – | – | – | – |
| CCc1cccc(N2CCN(CC(O)CCNCCC(C(=O)N(C)C)(c3ccccc3)c3ccccc3)CC2)c1Cl (stereo not given) | 1260 | 457 | 123 | 123 | 114 | – | – | – | – | – |
| CCc1cc(Cl)c(OC)c(C(=O)NC[C@@H]2CCCN2CCC(C#N)(c2ccccc2)c2ccccc2)c1O | > 100000 | 12400 | 1550 | – | – | – | – | – | – | – |
| CCc1cc(Cl)c(OC)c(C(=O)NCC2CCCN2CCCCNCCC(C(=O)N(C)C)(c2ccccc2)c2ccccc2)c1O (stereo not given) | 3420 | 502 | – | – | 93.7 | – | – | – | – | – |
